Activity calls are given as the source filed them.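 Rule for the calls: active = inhibition at or above 50% when tested at 10 µM; inactive = inhibition below 50% at 10 µM.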
Target: Methionine--tRNA ligase, mitochondrial (Homo sapiens) (UniProt Q96GW9)
Assay: inhibitors of human mitochondrial methionyl-tRNA synthetase – biochemical, radioactivity, round 3, selectivity assay for T. brucei MetRS inhibitor project, late-stage follow-up (AID 1053199)
Settings: recombinant human mitochondrial MetRS, [3H]Met aminoacylation, stronger effect = higher value

Chain of Methionine--tRNA ligase, mitochondrial (Homo sapiens) (Q96GW9 whole entry, looked up): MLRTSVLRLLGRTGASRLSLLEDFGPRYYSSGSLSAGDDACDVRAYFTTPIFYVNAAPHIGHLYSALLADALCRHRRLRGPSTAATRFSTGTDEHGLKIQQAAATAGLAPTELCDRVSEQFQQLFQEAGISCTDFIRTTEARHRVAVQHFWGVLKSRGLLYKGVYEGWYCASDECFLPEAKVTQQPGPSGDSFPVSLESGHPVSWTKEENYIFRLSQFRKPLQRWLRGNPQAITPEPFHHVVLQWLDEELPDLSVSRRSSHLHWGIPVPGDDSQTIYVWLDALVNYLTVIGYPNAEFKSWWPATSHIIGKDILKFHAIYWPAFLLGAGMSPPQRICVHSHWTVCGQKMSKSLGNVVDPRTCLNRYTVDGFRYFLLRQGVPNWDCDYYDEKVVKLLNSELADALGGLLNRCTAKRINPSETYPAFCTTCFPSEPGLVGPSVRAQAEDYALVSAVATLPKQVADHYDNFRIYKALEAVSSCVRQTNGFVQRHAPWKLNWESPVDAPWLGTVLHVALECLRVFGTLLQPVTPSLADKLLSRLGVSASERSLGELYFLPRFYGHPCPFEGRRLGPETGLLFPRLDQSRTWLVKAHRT

SMILES: Nc1c(Cl)ncnc1Nc1ccc(C(=O)O)cc1
- inhibition (at 10 µM): 6.59% (inactive)
- inhibition (inhibition, at 1 µM): 2.59%

SMILES: CCN(CC)C(=O)C(=O)c1cn(CCNc2cc(Oc3ccccc3)cc(C(F)(F)F)c2)c2ccccc12
- inhibition (at 10 µM): 2.68% (inactive)
- inhibition (inhibition, at 1 µM): -2.31%

SMILES: CCN(CC)C(=O)C(=O)c1cn(CC(=O)Nc2cc(Oc3ccc(F)cc3)cc(C(F)(F)F)c2)c2ccccc12
- inhibition (at 10 µM): 7.56% (inactive)
- inhibition (inhibition, at 1 µM): -2.44%

SMILES: O=C(Cc1ccc(Nc2nc3ccc(Br)cc3[nH]2)cc1)NCCc1cccs1
- inhibition (at 10 µM): 0.91% (inactive)
- inhibition (inhibition, at 1 µM): 5.12%

SMILES: CCN(CC)C(=O)C(=O)c1cn(CCNc2cccc(C(F)(F)F)c2)c2ccccc12
- inhibition (at 10 µM): 0.1% (inactive)
- inhibition (inhibition, at 1 µM): -5.12%

SMILES: CCN(CC)C(=O)C(=O)c1cn(CC(=O)Nc2cc(Oc3ccccc3F)cc(C(F)(F)F)c2)c2ccccc12
- inhibition (at 10 µM): -4.45% (inactive)
- inhibition (inhibition, at 1 µM): -5.27%

SMILES: CCN(CC)C(=O)C(=O)c1cn(CC(=O)Nc2cc(Oc3ccc(OC)cc3)cc(C(F)(F)F)c2)c2ccccc12
- inhibition (at 10 µM): -1.74% (inactive)
- inhibition (inhibition, at 1 µM): -4.97%

SMILES: CCN(CC)C(=O)C(=O)c1cn(CC(=O)Nc2cc(Oc3ccccc3OC)cc(C(F)(F)F)c2)c2ccccc12
- inhibition (at 10 µM): 6.34% (inactive)
- inhibition (inhibition, at 1 µM): -6.59%

SMILES: O=C(Cn1cc(C(=O)C(=O)NCc2ccccc2)c2ccccc21)Nc1cc(Oc2ccccc2)cc(C(F)(F)F)c1
- inhibition (at 10 µM): -8.53% (inactive)
- inhibition (inhibition, at 1 µM): -1.57%

SMILES: CCN(CC)C(=O)Cc1cn(CC(=O)Nc2cccc(C(F)(F)F)c2)c2ccccc12
- inhibition (at 10 µM): -11.2% (inactive)
- inhibition (inhibition, at 1 µM): -8.45%
